# Patent publication US20240300941A1, “HPK1 INHIBITORS, PREPARATION METHOD AND APPLICATION THEREOF” (ZHUHAI YUFAN BIOTECHNOLOGIES CO., LTD., priority 2018, published 2024)
# Key:
# [1] = test system: pSLP-76(Ser376) in Jurkat E6-1 cells; assay: Jurkat E6-1 pSLP-76(Ser376) HTRF experiment; format: cell-based; conditions: 4 hours compound incubation, anti-human CD3 antibody 20 minutes, Phospho-SLP-76 / SLP-76 HTRF
# Protocol: Jurkat E6-1 cells were purchased from ATCC (Cat. No. TIB-152TM) and cultured overnight with RPMI 1640 containing 0.5% o FBS, after that 20 μL (10^7 cells/mL) cells were added to the experimental plates. Then the test compounds were diluted by three-fold gradient, and 10 different concentrations were prepared, and 5 μl of each was added to the experimental plate, and incubated for 4 hours in 37° C. incubator containing 5% CO2. Then 5 ul of 6× anti-human CD3 antibody (Biolegend, Cat. No. 300432) was added and incubated for 20 minutes in 37° C. incubator containing 5% CO2. Finally, the Phospho-SLP-76 and SLP-76 results were determined using the Cisbio Phospho-SLP-76 and SLP-76 HTRF assay kits (items: 63ADK076PEH and 63ADK077PEH, respectively). Based on the results, the IC50 of the compound is calculated.
# HPK1 = HPK1 (Homo sapiens (Human), UniProt Q92918); assay: HPK1 ADP-Glo enzyme assay; format: biochemical; conditions: HPK1 protein 5 nM, MBP and ATP substrate, ADP-Glo readout
# HPK1, sequence (Q92918 whole entry): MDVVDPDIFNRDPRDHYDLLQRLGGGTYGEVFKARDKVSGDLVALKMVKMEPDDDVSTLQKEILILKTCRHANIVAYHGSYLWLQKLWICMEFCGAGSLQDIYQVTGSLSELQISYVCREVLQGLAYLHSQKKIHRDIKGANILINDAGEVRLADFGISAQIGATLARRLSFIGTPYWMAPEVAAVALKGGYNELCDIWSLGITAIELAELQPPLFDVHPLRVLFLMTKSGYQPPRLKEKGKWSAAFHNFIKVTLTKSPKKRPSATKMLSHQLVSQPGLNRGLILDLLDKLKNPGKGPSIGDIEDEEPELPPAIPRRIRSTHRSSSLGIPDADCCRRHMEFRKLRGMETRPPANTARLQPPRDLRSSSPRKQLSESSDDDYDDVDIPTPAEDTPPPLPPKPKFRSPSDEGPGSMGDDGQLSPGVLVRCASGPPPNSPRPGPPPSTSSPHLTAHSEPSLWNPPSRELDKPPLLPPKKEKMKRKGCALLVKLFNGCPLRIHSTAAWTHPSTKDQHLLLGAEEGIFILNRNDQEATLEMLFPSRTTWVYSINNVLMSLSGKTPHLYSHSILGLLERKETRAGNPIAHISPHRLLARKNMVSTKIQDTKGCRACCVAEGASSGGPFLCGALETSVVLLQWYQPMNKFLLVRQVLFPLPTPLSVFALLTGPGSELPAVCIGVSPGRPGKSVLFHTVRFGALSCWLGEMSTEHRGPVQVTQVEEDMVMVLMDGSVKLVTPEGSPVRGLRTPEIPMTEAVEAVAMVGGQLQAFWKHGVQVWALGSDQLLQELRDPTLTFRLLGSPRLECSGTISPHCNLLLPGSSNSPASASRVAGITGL
# Protocol: The buffer used in the enzyme assay contains 5 mM MOPS (pH=7.2), 2.5 mM β-Glycerol Phosphate, 0.4 mM EDTA, 1 mM EGTA, 0.05 mM DTT, 5 mM MgCl2. The compound was dissolved in 100% DMSO at the concentration was 10 mM. The initial concentration of the test was 5 uM, and ten data points were diluted by three-fold gradient, and each point was repeatedly measured twice. The HPK1 protein was purchased from Thermo (Cat. No. PV6355) and diluted to 2× stock solution at the concentration of 10 nM (the final concentration of the enzyme assay was 5 nM). 2.5 µl of 2×HPK1 protein was added to each well of the plate containing the test compound, centrifuged at 1000 rpm for 30 seconds, and then incubated at 25° C. for 15 minutes. MBP protein was purchased from Millipore (Cat. No. 13-110) and ATP was purchased from Sigma (Cat. No. A7699-5G) and the two were formulated into 2× working solutions at concentrations of 4 uM and 80 uM. Added 2.5 μl mixture of 2×MBP and ATP, centrifuged at 1000 rpm for 30 seconds, then incubated at 25° C. for 90 minutes. Then added 5 ul of ADP-Glo™ (Promega, Cat. No. V9102) to the assay plate and incubated […] at 25° C. for 60 minutes. Finally, 10 ul of the kinase assay reagent (Promega, Cat. No. V9102) was added to the assay plate, centrifuged at 1000 rpm for 30 seconds at 25° C. for 60 minutes, and the […] intensity was determined.
Compound,IC50 [1] [nM],IC50 (HPK1) [nM]
CN1CCC(c2ncc(-c3cnc(N)c(OCc4ccncc4)c3)s2)CC1 [A1],< 1000,< 100
CN1CCC(c2ncc(-c3cnc(N)c(OCc4ccccc4)c3)s2)CC1 [A2],1000 to 50000,100 to 1000
CN1CCC(c2ncc(-c3cnc(N)c(OCc4cccc(C#CC(C)(C)O)c4)c3)s2)CC1 [A3],< 1000,–
CC(Oc1cc(-c2cnc(C3CCN(C)CC3)s2)cnc1N)c1ccncc1 (centres unmarked) [A4],1000 to 50000,100 to 1000
CN1CCC(c2ncc(-c3cnc(N)c(OCc4ccc(F)cc4)c3)s2)CC1 [A5],1000 to 50000,100 to 1000
Nc1ncc(-c2cnc(C3CCNCC3)s2)cc1OCc1ccncc1 [A7],< 1000,–
CN1CCC(c2ncc(-c3cnc(N)c(OCc4ccnc(Cl)c4)c3)s2)CC1 [A8],1000 to 50000,–
CN1CCC(c2ncc(-c3cnc(N)c(OCc4ccnc(C#CC(C)(C)O)c4)c3)s2)CC1 [A10],< 1000,–
CN1CCC(c2ncc(-c3cnc(N)c(OCc4ccnc(C#N)c4)c3)s2)CC1 [A11],1000 to 50000,100 to 1000
CN1CCN(c2ncc(-c3cnc(N)c(OCc4ccncc4)c3)s2)CC1 [A12],< 1000,–
Nc1ncc(-c2cnc(C3CCOCC3)s2)cc1OCc1ccncc1 [A13],< 1000,–
Cc1nc(C2CCN(C)CC2)sc1-c1cnc(N)c(OCc2ccncc2)n1 [A15],–,100 to 1000
CSc1ncc(-c2cnc(N)c(OCc3cccc(C#CC(C)(C)O)c3)c2)s1 [A17],1000 to 50000,< 100
CC(C)(O)C#Cc1cccc(COc2cc(-c3cnc(Oc4ccccc4)s3)cnc2N)c1 [A18],–,100 to 1000
CN1CCC(c2ncc(-c3cnc(N)c(OCc4cc(C#CC(C)(C)O)ccc4F)c3)s2)CC1 [A19],< 1000,< 100
CCC(C)c1ncc(-c2cnc(N)c(OCc3cccc(C#CC(C)(C)O)c3)c2)s1 (centres unmarked) [A20],1000 to 50000,< 100
CC(C)c1ncc(-c2cnc(N)c(OCc3cc(C#CC(C)(C)O)ccc3F)c2)s1 [A21],< 1000,< 100
CC1CN(c2ncc(-c3cnc(N)c(OCc4cccc(C#CC(C)(C)O)c4)c3)s2)CCN1C (centres unmarked) [A22],< 1000,< 100
CC(C)(O)C#Cc1cccc(COc2cc(-c3cnc(C4CCOCC4)s3)cnc2N)c1 [A23],< 1000,< 100
CN1CCCN(c2ncc(-c3cnc(N)c(OCc4cccc(C#CC(C)(C)O)c4)c3)s2)CC1 [A24],< 1000,< 100
CN1CCN(c2ncc(-c3cnc(N)c(OCc4cccc(C#CC(C)(C)O)c4)c3)s2)CC1 [A25],< 1000,< 100
CC1CN(c2ncc(-c3cnc(N)c(OCc4cccc(C#CC(C)(C)O)c4)c3)s2)CC(C)N1C (centres unmarked) [A26],< 1000,< 100
CC(C)(O)C#Cc1cccc(COc2cc(-c3cnc(C4CCN(CC(F)(F)F)CC4)s3)cnc2N)c1 [A27],1000 to 50000,< 100

Compound,IC50 [1] [nM],IC50 (HPK1) [nM]
CC(C)(O)C#Cc1cccc(COc2cc(-c3cnc(N4CCCCC4)s3)cnc2N)c1 [A29],–,100 to 1000
CC(C)(O)C#Cc1cccc(COc2cc(-c3cnc(C4CCCCC4)s3)cnc2N)c1 [A30],–,100 to 1000
CC(C)(O)C#Cc1ccc(F)c(COc2cc(-c3cnc(C4CCNCC4)s3)cnc2N)c1 [A31],< 1000,< 100
CN1CCC(n2cc(-c3cnc(N)c(OCc4cccc(C#CC(C)(C)O)c4)c3)cn2)CC1 [A32],< 1000,< 100
CN1CCC(c2ncc(-c3cnc(N)c(OCc4cccc(C#CC(C)(O)C(F)(F)F)c4)c3)s2)CC1 (centres unmarked) [A33],–,> 1000
CN1CCC(c2ncc(-c3cnc(N)c(OCc4cccc(C#CC5(O)CCCC5)c4)c3)s2)CC1 [A34],< 1000,–
Cc1ncc(-c2cnc(N)c(OCc3ccncc3)c2)s1 [A35],1000 to 50000,100 to 1000
CC(C)c1ncc(-c2cnc(N)c(OCc3ccncc3)c2)s1 [A36],1000 to 50000,–
Nc1ncc(-c2cnc(C3CCCCC3)s2)cc1OCc1ccncc1 [A37],< 1000,–
C#Cc1cc(COc2cc(-c3cnc(C4CCN(C)CC4)s3)cnc2N)ccn1 [A39],< 1000,< 100
CN1CCC(c2ncc(-c3cnc(N)c(OCc4cccc(C#CC5(O)CCC5)c4)c3)s2)CC1 [A40],< 1000,–
CC(C)c1ncc(-c2cnc(N)c(OCc3cccc(C#CC(C)(C)O)c3)c2)s1 [A41],1000 to 50000,–
CC(C)(O)C#Cc1cccc(COc2cc(-c3cnc(C4CCNCC4)s3)cnc2N)c1 [A42],< 1000,–
CN1CCC(c2ccc(-c3cnc(N)c(OCc4ccncc4)c3)nc2)CC1 [A43],1000 to 50000,100 to 1000
CN1CCC(c2ncc(-c3cnc(N)c(OCc4cncc(C#CC(C)(C)O)c4)c3)s2)CC1 [A44],1000 to 50000,< 100
CC(C)c1ncc(-c2cnc(N)c(OCc3cncc(C#CC(C)(C)O)c3)c2)s1 [A45],1000 to 50000,100 to 1000
Nc1ncc(-c2cnc(C3CCOCC3)s2)cc1OCc1cc(C#CC2(O)CC2)ccc1F [A46],< 1000,< 100
Nc1ncc(-c2cnn(C3CCOCC3)c2)cc1OCc1cccc(C#CC2(O)CC2)c1 [A47],< 1000,< 100
CN1CCC(c2ncc(-c3cnc(N)c(OCc4cc(C#CC5(O)CC5)ccc4F)c3)s2)CC1 [A48],< 1000,< 100
CC(C)(O)C#Cc1cccc(COc2cc(-c3cnc(C4CCCCN4)s3)cnc2N)c1 (centres unmarked) [A49],< 1000,< 100
Nc1ncc(-c2cnc(C3CCOCC3)s2)cc1OCc1cccc(C#CC2(O)CC2)c1 [A50],< 1000,< 100
Nc1ncc(-c2cnn(C3CCOCC3)c2)cc1OCc1cc(C#CC2(O)CC2)ccc1F [A51],< 1000,< 100
Nc1ncc(-c2cnc(C3CCNCC3)s2)cc1OCc1cccc(C#CC2(O)CC2)c1 [A52],< 1000,< 100

Compound,IC50 [1] [nM],IC50 (HPK1) [nM]
Nc1ncc(-c2cnc(C3CCNCC3)s2)cc1OCc1cc(C#CC2(O)CC2)ccc1F [A53],< 1000,< 100
Nc1ncc(-c2cnn(C3CCNCC3)c2)cc1OCc1cccc(C#CC2(O)CC2)c1 [A54],< 1000,< 100
CN1CCC(c2ncc(-c3cnc(N)c(OCc4cc(C#CC(C)(C)O)ccc4Cl)c3)s2)CC1 [A55],< 1000,< 100
CC(C)(O)C#Cc1cccc(COc2cc(-c3cnc(C4CCCNC4)s3)cnc2N)c1 (centres unmarked) [A56],< 1000,< 100
CN1CCC(c2ncc(-c3cnc(N)c(OCc4cc(F)cc(C#CC(C)(C)O)c4)c3)s2)CC1 [A57],< 1000,< 100
CN1CCC(c2ccnc(-c3cnc(N)c(OCc4cccc(C#CC(C)(C)O)c4)c3)c2)CC1 [A58],–,100 to 1000
CN1CCC(c2ncc(-c3cnc(N)c(OCc4cccc(C#CC5(O)CCCCC5=O)c4)c3)s2)CC1 (centres unmarked) [A61],–,100 to 1000
CC(C)c1ncc(-c2cnc(N)c(OCc3cc(C#CC(C)(C)O)ccc3CN)c2)s1 [A67],–,< 100
CN1CCN(C2CCN(c3ncc(-c4cnc(N)c(OCc5cccc(C#CC(C)(C)O)c5)c4)s3)CC2)CC1 [A69],–,< 100
CC(C)c1ncc(-c2cnc(N)c(OCc3cc(C#CC(C)(C)O)cc(CN)c3)c2)s1 [A70],–,< 100
CN1CCC(c2ncc(-c3cnc(N)c(OCc4cccc(C#CC(C)(C)O)c4)c3)s2)C1 (centres unmarked) [A72],–,< 100
CN1CCC(n2cc(-c3cnc(N)c(OCc4cc(C#CC(C)(C)O)ccc4F)c3)cn2)CC1 [A73],–,< 100
CN1CCC(n2cc(-c3cnc(N)c(OCc4cccc(C#CC(C)(O)CF)c4)c3)cn2)CC1 (centres unmarked) [A74],–,< 100
CN1CCC(c2ncc(-c3cnc(N)c(OCc4ccc(F)c(C#CC(C)(C)O)c4)c3)s2)CC1 [A75],–,< 100
CN1CCC(c2ncc(-c3cnc(N)c(OCc4cc(C#CC(C)(C)O)ccc4C(F)(F)F)c3)s2)CC1 [A76],–,< 100
CC(C)(O)C#Cc1cccc(COc2cc(-c3cnn(C4CCNCC4)c3)cnc2N)c1 [A79],–,< 100
CC(C)(O)C#Cc1cccc(COc2cc(-c3cnn(C4CCOCC4)c3)cnc2N)c1 [A80],–,< 100
CC(C)(O)C#Cc1cc(CN)cc(COc2cc(-c3cnc(C4CCOCC4)s3)cnc2N)c1 [A81],–,< 100
CN1CCC(c2ncc(-c3cnc(N)c(OCc4cc(C#CC(C)(C)O)cc(CN)c4)c3)s2)CC1 [A83],–,< 100
CC(C)(O)C#Cc1ccc(CN)c(COc2cc(-c3cnc(C4CCOCC4)s3)cnc2N)c1 [A84],–,< 100
Nc1ncc(-c2cccc(N3CCOCC3=O)c2)cc1OCc1ccncc1 [A85],–,> 1000
